Experimental data: BindingDB's records for doi:10.3109/14756366.2010.482047 (Academy of Sciences of The Czech Republic, 2011)

Target: T1, Cytosol aminopeptidase [33-68,L62W] (Sus scrofa, UniProt P28839, L62W)
T1 construct: 33-68
Assay: Kinetic Inhibition Assay
Settings: pH 8.4; 25 °C
Method: LAP was assayed in 75 mM triethanolamine hydrochloride buffer (pH = 8.4, containing 5 mM MgCl2) at 25°C. The substrate (L-leucine-p-nitroanilide) was dissolved in DMSO and added to the assay buffer followed by the enzyme. The hydrolysis of the substrate was monitored by the change in absorbance measured at 405 nm. All the inhibitor solutions were prepared in the assay buffer. The assay solution, which contained 0.05 mL of the substrate solution (0.2, 0.4, 0.6, 0.8, 1 mM final concentrations), 0.25 mL of an inhibitor solution (concentration dependent on the inhibitor), the enzyme solution (20 μg/ml final concentration) and adjusted to a 1 mL final volume.

T1 sequence (P28839 33-68 L62W): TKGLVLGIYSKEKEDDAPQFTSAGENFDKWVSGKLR

SMILES	Ki [µM]
CCCC[C@H](N)P(=O)(O)O [1-aminopentylphosphonic acid]	58
CSCC[C@H](N)P(=O)(O)O [Met-P (1)]	22.6
CSCC[C@H](N)[P@H](=O)O [Met-PH (2)]	22
CSCCC(N)P(=O)(O)CC(C)C(=O)O (configuration not stated) [Met-ψ[P(O)(OH)CH2]-Ala (5)]	3.64
CCCCC(N)[PH](=O)O (configuration not stated) [Nle-PH (4)]	73.9
CCCCC(N)P(=O)(O)O[C@@H](C)C(=O)O (stereo partly drawn) [Nle-ψ[P(O)(OH)O]-L-Ala (6)]	269
CCCCC(N)P(=O)(O)O[C@@H](C)C(=O)OC (stereo partly drawn) [Nle-ψ[P(O)(OH)O]-L-AlaOMe (7)]	219
